Measured values reported in US9884012B2, “Use of PEDF-derived polypeptides for promoting muscle or tendon regeneration or arteriogenesis” (MacKay Memorial Hospital, priority 2012, dated 2018).

Assays:
[1] = test system: soleus muscle; experiment: bupivacaine myonecrosis model, centrally nucleated muscle fibers; assay type: in vivo, Sprague-Dawley rats; conditions: for centrally nucleated fibers in regenerating muscle: 14 days after the bupivacaine injection, in words; for Centrally nucleated fibers (%): day 7 after the bupivacaine injection, soleus muscle, sustained-release formulation (Bolus: bolus 29-mer)
Procedure: To ascertain the number of centrally nucleated muscle fibers, sections were stained with H&E and then photographed as described above. At least 100 stained fibers were randomly chosen from each photo. Muscle fibers were judged centrally nucleated if one or more nuclei were not located at the periphery of the fiber. The data were expressed as a % of the total number of muscle fibers counted. Results were evaluated from 6 sections per muscle section, and 10 mice at each group.
(§1) To investigate the effects of the present PEDF peptides on muscle regeneration, a rat myonecrosis model of a single injection of bupivacaine into the soleus muscle was employed. Adult 10-week-old male Sprague-Dawley rats (initial body weight=312±11 g) were anesthetized by an intraperitoneal injection of a xylazine (10 mg/kg). Then, the soleus muscle was injured by unilaterally injecting 0.5 ml bupivacaine (AstraZeneca) with a disposable syringe with a 26-gauge needle. Briefly, the needle was inserted into the distal portion of the soleus muscle and then receded longitudinally to the proximal portion accompanying evenly bupivacaine solution injection. The solution was then injected throughout the entire length of the muscle as the needle was slowly withdrawn.
After bupivacaine injection, rats were divided equally (n=10/group) into four experimental groups and treated as follows. In the blank control group, the mice were treated with 50 μl of blank alginate gel. In the treatments groups, the mice received 50 μl of the sustained-release formulation (29-mer or 20-mer). The mice in the bolus control group received the bolus formulation (29-mer). Treatments were applied by way of a single intramuscular injection to the soleus muscle immediately after the bupivacaine perfusion.
In the process of muscle regeneration, newly generated muscle fibers typically contain central located nuclei. […] Statistical analysis regarding the percentage of centrally nucleated fibers was performed at day 7 after the bupivacaine injection, and the results were summarized in Table 6.

[2] = in vitro release of PEDF peptides from alginate gel in PBS; assay type: physicochemical; conditions: PBS pH 7.4, 37° C.; for peptide remained in the alginate gel matrix: after 24 hours, FITC-conjugated peptide in alginate hydrogel
Procedure: Each PEDF-derived short synthetic peptide (the 29-mer, 25-mer, 24-mer, 20-mer, 18-mer, MO 29-mer, or MO 20-mer; hereinbelow, PEDF peptide) was reconstituted in DMSO as stock (5 mM). Then, ultrapure alginate was mixed with the stock to obtain a 2% wt/vol alginate solution with PEDF peptide at a final concentration of 10 μM. The alginate solution was then filtered by membrane filter (pore size, 0.22 μm) and mixed with filtered calcium sulfate (0.21 g CaSO4/mL of dH2O) at a ratio of 25:1 (40 μL of CaSO4 per 1 mL of the filtered alginate solution). The mixture was let standing at RT for about 1 hour to allow for the cross-linking of the alginate. The resultant sustained-release formulation was then used in the treatment of muscle or tendon damage and ischemia.
To determine the release kinetics of 29-mer and 20mer, 100 μg of FITC-conjugated PEDF peptide was mixed with 100 μL alginate solution, and then hydrogels were prepared as set forth in the “Materials and Methods” section. Thereafter, 100 mg hydrogel was incubated in 1.5 ml of PBS (pH 7.4) in microcentrifuge tube and placed in an orbital shaking incubator over a 6-day period at 37° C. The tube was centrifuged at each predetermined time point and then 200 μL of supernatant was removed and stored at −80° C. for further analysis, and 200 μL of fresh PBS was added to the tube to replace the supernatant withdrawn. The concentration of FITC-conjugated PEDF peptide present in the collected supernatants was determined using a fluorimeter in 96-well format. A known non-encapsulated FITC-peptide was used to generate a standard curve. Triplicate data were used for analysis.

[3] = test system: soleus muscle (muscle fibers, satellite cells); experiment: bupivacaine myonecrosis model, BrdU and Pax7 labeling of soleus muscle; assay type: in vivo, Sprague-Dawley rats; conditions: soleus muscle after bupivacaine injection; for BrdU Labeling Index (%): 50 μl sustained-release formulation (Bolus: bolus 29-mer), single intramuscular injection; for Pax7 Labeling Index (%): sustained-release formulation (Bolus: bolus 29-mer)
Procedure: De-paraffinized tissue sections were blocked with 10% goat serum for 1 hour. Staining was done using primary antibodies against BrdU (1:50 dilution; GTX42641) or type I collagen 1A1 (1:50 dilution) overnight at 4° C., followed by incubation with the appropriate peroxidase-labeled donkey immunoglobulin for 30 min and then with chromogen substrate (3,3′-diaminobenzidine) for 2 min before counterstaining with hematoxylin. Quantification was estimated based on high quality images (1208×960 pixels) captured using a Nikon Eclipse 80i light microscope.
For the detection of cell expansion, BrdU was reconstituted in DMSO as stock (80 mM). 10 μl of BrdU mixed with 90 μl of PBS was intraperitoneally injected into the mouse 16 hours prior to euthanasia. Also, 150 μl of BrdU mixed with 350 μl of PBS was intraperitoneally injected into the rat 16 hours prior to euthanasia. DNA synthesis was assessed by BrdU labeling with anti-BrdU antibodies.
De-paraffinized tissue sections or 4% paraformaldehyde fixed rabbit tendon stem cells (TSCs) were blocked with 10% goat serum and 5% BSA for 1 hour. Double staining was done using primary antibodies against α-SMA (1:100 dilution), IB4 (5 μg/ml), Pax7 (1:100 dilution), nucleostemin (1:100 dilution) and type I collagen 1A1 (1:50) at 37° C. for 2 hours, followed by incubation with the appropriate rhodamine- or FITC-conjugated donkey IgG for 1 hour at RT. Nuclei were located by counterstaining with Hoechst 33258 for 7 minutes. Images were captured using a Zeiss epifluorescence microscope with a CCD camera.
as §1
After bupivacaine injection, rats were divided equally (n=10/group) into four experimental groups and treated as follows. […]
Muscle regeneration involves proliferation of muscle fibers, or muscle cells. […] Detailed assay procedures are as described in “Materials and Methods.” The level of BrdU-positive cells was expressed as labeling index (%), which was computed as the number of labeled cells divided by the total number of cells. […]

Sequence | centrally nucleated fibers in regenerating muscle [1] | Centrally nucleated fibers (%) [1] [%] | peptide remained in the alginate gel matrix [2] | peptide released from alginate gel ([2]; in the first 3 days) | BrdU Labeling Index (%) [3] [%] | Pax7 Labeling Index (%) [3] [%] | peptide released from alginate gel ([2]; within the first 4 days) [%]
SLGAEQRTESIIHRALYYDL [20-mer, synthetic peptide corresponding to residues 93-112 of human PEDF] | much less centrally nucleated fibers | 63.3 ± 7.4 | ~35% | about 90% | 13.6 ± 3.0 | 14.6 ± 1.9 | 
SLGAEQRTESIIHRALYYDLISSPDIHGT [29-mer, synthetic peptide corresponding to residues 93-121 of human PEDF] | much less centrally nucleated fibers | 75.2 ± 7.0 | approximately 48% |  | 15.4 ± 1.7 | 16.2 ± 2.0 | 90
